The text below walks through data of patent US20080221114A1, “2-(Cyclic Aminocarbonyl) Indoline Derivative and Medicinal Composition Containing the Same” (priority 2005, published 2008).

In data set [1] the target is T1, mitochondrial benzodiazepine receptor (MBR) (Rattus norvegicus, UniProt P16257).
T1 construct: from tissue; host or cells: kidney of male Wistar rats (crude membrane preparation)
Kind of data set: Binding assay of mitochondrial benzodiazepine receptor (MBR), [3H]4'-chlorodiazepam (Ro5-4864), rat kidney membrane-preparation. The conditions noted are these: rat kidney membranes, [3H]4'-chlorodiazepam 0.5 nM, 0° C. for 150 minutes. The method, then: The binding assay of central-type benzodiazepine receptor (CBR) and the preparation of receptor membrane-preparation were carried out according to the partially modified method of Braestrup, C. et al. [see; Br. J. Psychiatry, 133, 249-260 (1978)] with a minor modification; the binding assay of mitochondrial benzodiazepine receptor (MBR) and the preparation of receptor membrane-preparation were carried out according to the method of Schoemaker, H [see; J. Pharmacol. Exp. Ther., 225, 61-69 (1983)] with a minor modification.
CBR and MBR membrane-preparations were prepared from forebrain (CBR) and kidney (MBR) of male Wistar strain rats according to the following procedure, respectively.
To the forebrain of rat, 20 volumes of ice-cold 0.32 M sucrose solution to wet-weight of the tissue (1:20, wet-weight/vol) was added and homogenized, and then the homogenate was centrifuged at 900×g for 10 minutes. The supernatant was centrifuged at 11,500×g for 20 minutes, a buffer I for the binding assay (50 mM Tris-hydrochloric acid buffer, pH 7.5) was added to the resultant precipitate, and the mixture was homogenized, and then it was centrifuged at 30,000×g for 10 minutes. The resulting precipitate was washed 3 times according to the same operation, suspended in the buffer I (1 g of wet-weight of tissue/10 ml) and used as a CBR membrane-preparation for the binding assay. The CBR membrane-preparation was stored at −80° C. until use, and on the day of the assay, it was thawed and suspended in the buffer for use. On the other hand, kidney of rat was homogenized in 20 volumes of ice-cold buffer II for the binding assay to wet-weight of the tissue (1:20, wet-weight/vol) (50 mM sodium phosphate-potassium phosphate buffer solution containing 100 mM sodium chloride, pH 7.4), and then filtrated through 4 layers of gauze, and the filtrate was centrifuged at 40,000×g for 20 minutes. The resulting precipitate was suspended in the buffer II (1 g of wet-weight of tissue/50 ml) and used as a MBR membrane-preparation for the binding assay.
As a labeled ligand and a non-labeled ligand, [^3H]flunitrazepam (final concentration: 1 nM) and diazepam (final concentration: 20 μM) were used respectively, for the CBR binding assay, and [^3H]4′-chlorodiazepam (Ro5-4864, chemical name: 7-chloro-1,3-dihydro-1-methyl-5-(4-chloro-phenyl)-2H-1,4-[…]) (final concentration: 0.5 nM) and diazepam (final concentration: 50 μM) were used respectively, for the MBR binding assay. The binding assay of CBR was carried out by incubating at 0° C. for 30 minutes, while that of MBR was at 0° C. for 150 minutes.
The receptor binding assay was carried out in the following procedure. The test compound which the concentration was known, a tritium labeled ligand, a receptor membrane-preparation and the buffer I or II for the binding assay were added to a 96-well microplate in the total volume was 0.2 ml, and when the receptor membrane-preparation was added, the reaction started. After the incubation, the labeled ligand binding to the receptor was filtrated through a filter plate (UNI FILTER-96GF/B, PerkinElmer, the U.S.) using a cell harvester (PerkinElmer, the U.S.) to stop the reaction. The filter was immediately washed 6 times with 0.3 ml of the ice-cold buffer [50 mM Tris-hydrochloric acid buffer (pH 7.7)]. After 30 μl of liquid scintillation cocktail (MICROSCINTI 20, PerkinElmer, the U.S.) was added to each well on the dried filter plate, the radioactivity was measured with a TopCount. The specific binding amount was obtained by subtracting the non-specific binding amount which was simultaneously measured in the presence of non-labeled ligand from the total binding amount. The concentration that the test compound could decrease the specific binding amount of the labeled ligand to 50% of the amount (IC50 value) was analyzed using nonlinear least-squares method.

For orientation: IC50 means the point on the concentration scale where inhibition reaches its midpoint. A higher IC50 goes with a need for much substance. As a reminder, the melting point is the temperature, or range, at which the solid turns liquid. On to `C[C@H]1CCCN(C(=O)[C@@H]2Cc3cc(Br)ccc3N2c2ccc(=O)n(C)n2)C1` [Example 93], for which the melting point was in the range of 241 to 242 °C. In data set [1], the half-maximal inhibitory concentration (IC50) was 5.81 nM. `C[C@@H]1C[C@H](C)CN(C(=O)C2Cc3ccccc3N2c2nc3ccccc3o2)C1` (relative stereo) [Example 5] had a melting point of 199 to 201 °C. This molecule yielded an IC50 in data set [1] of 2.28 nM. `C[C@@H]1CCCN(C(=O)[C@@H]2Cc3ccccc3N2c2nc3ccccc3o2)C1` [Example 16]: the melting point was 220 to 222 °C. This molecule also had an IC50 in data set [1] of 1.17 nM. Take `CCCn1nc(N2c3ccccc3C[C@H]2C(=O)N2CCC[C@H](C)C2)ccc1=O` [Example 130]: the melting point fell in the range of 183 to 185 °C. In data set [1], this molecule registered an IC50 of 4.04 nM. `C[C@H]1CCCN(C(=O)[C@@H]2Cc3ccccc3N2c2ccc3nccn3n2)C1` [Example 78] had a melting point of 190 to 193 °C. For the same molecule, in data set [1], the IC50 worked out at 2.53 nM. For `C[C@@H]1C[C@H](C)CN(C(=O)[C@@H]2Cc3ccccc3N2c2cncc(Cl)n2)C1` [Example 21], in that order: 174 to 175 °C and 1.23 nM.

In the case of `CC1CCCN(C(=O)C2Cc3ccccc3N2c2ncccn2)C1` (stereo not shown) [Example 6], the melting point fell in the range of 156 to 158 °C. For the same molecule, the IC50 in data set [1] was 2.92 nM. For `CC1CCCN(C(=O)C2Cc3cc(F)ccc3N2c2ccc(=O)n(C)n2)C1` (racemic) [Example 132], in that order: 217 to 219 °C and 10.1 nM.

Turning to `C[C@H]1CCCN(C(=O)[C@@H]2Cc3cc(Cl)ccc3N2c2ccc(=O)n(C)n2)C1` [Example 94], the melting point was in the range of 243 to 244 °C. For the same molecule, the IC50 in data set [1] is 16.7 nM.

Regarding `O=C(C1Cc2ccccc2N1c1ncccn1)N1CCCC(C(F)(F)F)C1` (racemic) [Example 49], the melting point was 159 to 163 °C. For the same molecule, in data set [1], the IC50 amounted to 3.98 nM. For `CCc1cnc(N2c3ccccc3CC2C(=O)N2C[C@H](C)C[C@H](C)C2)nc1` (relative stereo) [Example 8], in that order: 147 to 149 °C and 2.05 nM. On to `COc1cccc2c1CC(C(=O)N1CCC[C@H](C)C1)N2c1ccc(Cl)nn1` (stereo partly shown) [Example 68], for which the melting point is 223 to 226 °C. This molecule showed an IC50 in data set [1] of 1.67 nM. For `C[C@H]1CCCN(C(=O)[C@@H]2Cc3ccccc3N2c2nsc3ccccc23)C1` [Example 28], in that order: 176 to 178 °C and 5.72 nM. For `CC1CC(C)CN(C(=O)[C@@H]2Cc3ccccc3N2c2ncccn2)C1` (stereo partly shown) [Example 25], in that order: 237 to 239 °C and 6.73 nM. On to `C[C@H]1CCCN(C(=O)[C@@H]2Cc3ccccc3N2c2cnc3ccccc3n2)C1` [Example 26], for which the melting point was in the range of 160 to 161 °C. The molecule also gave an IC50 in data set [1] of 0.851 nM.

In the case of `C[C@H]1CCCN(C(=O)[C@@H]2Cc3cc(Br)ccc3N2c2cccnn2)C1` [Example 90], the melting point was in the range of 161 to 163 °C. Besides, the IC50 in data set [1] came out at 6.54 nM.

In the case of `C[C@@H]1C[C@H](C)CN(C(=O)[C@@H]2Cc3ccccc3N2c2nc3ccccc3o2)C1` [Example 18], the melting point was 165 to 167 °C. This molecule also displayed an IC50 in data set [1] of 1.47 nM. As to `O=C(C1Cc2ccccc2N1c1ncccn1)N1CCCC(c2ccccc2)C1` (racemic) [Example 51], the melting point lay within 145 to 151 °C. In data set [1], the IC50 was 21.2 nM. Regarding `Cc1ccc(N2c3ccccc3CC2C(=O)N2C[C@H](C)C[C@H](C)C2)nc1` (relative stereo) [Example 11], the melting point was in the range of 137 to 139 °C. In data set [1], this molecule came in with an IC50 of 1.84 nM. For `C[C@H]1CCCN(C(=O)[C@@H]2Cc3ccccc3N2c2ccc3nnc(Cl)n3n2)C1` [Example 79, (S)-1-(3-chloro-1,2,4-triazolo[4,3-b]pyridazin-6-yl)-2-[[(S)-3-methylpiperidin-1-yl]carbonyl]indoline], the melting point was in the range of 268 to 269 °C. The molecule further showed an IC50 in data set [1] of 1.76 nM. `CCCCn1nc(N2c3ccccc3C[C@H]2C(=O)N2CCC[C@H](C)C2)ccc1=O` [Example 74] registered a melting point of 186 to 188 °C. In turn, `C[C@@H]1C[C@H](C)CN(C(=O)[C@@H]2Cc3ccccc3N2c2ccc([N+](=O)[O-])cn2)C1` [Example 30] showed a melting point of 208 to 210 °C. The IC50 in data set [1] stood at 1.29 nM. The molecule `C[C@H]1CCCN(C(=O)[C@@H]2Cc3ccccc3N2c2cnccn2)C1` [Example 60, (S)-2-[(S)-3-methylpiperidin-1-yl]carbonyl-1-(2-pyrazinyl)indoline] yielded a melting point of 174 to 175 °C. In data set [1], this molecule returned an IC50 of 1.54 nM.

`CC(C)Cn1nc(N2c3ccccc3C[C@H]2C(=O)N2CCC[C@H](C)C2)ccc1=O` [Example 75] showed a melting point of 215 to 216 °C. In addition, the IC50 in data set [1] came out at 2.77 nM. For `C[C@H]1CCCN(C(=O)[C@@H]2Cc3ccccc3N2c2ccc(Cl)nn2)C1` [Example 35], in that order: 183 to 186 °C and 1.19 nM. For `C[C@H]1CCCN(C(=O)[C@@H]2Cc3ccccc3N2c2ccccn2)C1` [Example 72], in that order: 186 to 189 °C and 0.659 nM.

`COc1cccc2c1CC(C(=O)N1CCCC(C)C1)N2c1cccnn1` (racemic) [Example 85] registered a melting point of 160 to 162 °C. The IC50 in data set [1] stood at 3.69 nM. For `C[C@H]1CCCN(C(=O)[C@@H]2Cc3ccccc3N2c2nccc3ccccc23)C1` [Example 12], in that order: 134 to 136 °C and 1.37 nM. Molecule `CC1CC(C)CN(C(=O)C2Cc3ccccc3N2c2ccncn2)C1` (racemic) [Example 58] gave a melting point of 107 to 109 °C. Moreover, the IC50 in data set [1] is 4.31 nM. Molecule `C[C@@H]1C[C@H](C)CN(C(=O)[C@@H]2Cc3ccccc3N2c2cnccn2)C1` [Example 61, (S)-2-(cis-3,5-dimethylpiperidin-1-yl)carbonyl-1-(2-pyrazinyl)indoline] showed a melting point of 162 to 164 °C. The IC50 in data set [1] is 1.42 nM.

With `COc1ccc2c(c1)CC(C(=O)N1CCC[C@H](C)C1)N2c1ccc(Cl)nn1` (stereo partly shown) [Example 69], the melting point lay in the range of 136 to 139 °C. Besides, the IC50 in data set [1] was 4.51 nM.

For `COc1ccc(N2c3ccccc3C[C@H]2C(=O)N2C[C@H](C)C[C@H](C)C2)nn1` [Example 39], the melting point is 173 to 175 °C. Also, the IC50 in data set [1] turned out to be 1.71 nM. For `Cc1ccc(N2c3ccccc3C[C@H]2C(=O)N2C[C@H](C)C[C@H](C)C2)nn1` [Example 38], in that order: 158 to 159 °C and 1.88 nM. For `C[C@H]1CCCN(C(=O)[C@@H]2Cc3ccccc3N2c2cccnc2)C1` [Example 32], in that order: 114 to 115 °C and 0.727 nM.

`C[C@H]1CCCN(C(=O)[C@@H]2Cc3ccccc3N2c2ccc(=O)n(CC(=O)c3ccccc3)n2)C1` (hydrate or solvate) [Example 124]: the melting point is 255 °C (dec.).

`C[C@H]1CCCN(C(=O)[C@@H]2Cc3ccccc3N2c2ccc(=O)n(CC3CCC3)n2)C1` (hydrate or solvate) [Example 125] displayed a melting point of 221 to 223 °C. Regarding `Cn1nc(N2c3ccccc3C[C@H]2C(=O)N2CCCCCC2)ccc1=O` (hydrate or solvate) [Example 118, (S)-1-(1-methyl-6-oxo-1,6-dihydropyridazin-3-yl)-2-[(1-perhydroazepinyl)carbonyl]indoline], the melting point is 198 to 199 °C.
